{
  "source": "patent US9539141B2",
  "about": "“System and method for ocular iontophoresis with buffering” (Eyegate Pharmaceuticals, Inc., priority 2008, dated 2017)",
  "experiment": "pH of aqueous solution at dosing concentration",
  "settings": "aqueous solution at dosing concentration of 40 mg/mL",
  "data": [
    {"smiles": "C[C@@H]1C[C@H]2[C@@H]3CCC4=CC(=O)C=C[C@]4(C)[C@@]3(F)[C@@H](O)C[C@]2(C)[C@@]1(O)C(=O)COP(=O)(O)O", "note": "[dexamethasone phosphate]", "values": [
      {"measurement": "pH of aqueous solution", "value": 5.7}
    ]}
  ]
}
